Data from patent US20080200544A1, “Oil agent and lubricant agent, moisturizer and external preparation composition containing the same” (priority 2007, published 2008).
Where a name gives a salt, the structure may show the parent alone.

Tests used:
[1] = Viscosity, Brookfield viscometer DV-II+ (Spindle No. 2, 12 rpm, 25° C.); assay type: physicochemical; conditions: for Viscosity: 25° C.; for Feeling of use: class assigned from viscosity at 25° C.
Method: In this specification, “viscosity” refers to a value of viscosity measured using a Brookfield viscometer DV-II+ (Spindle No. 2, 12 rpm, 25° C.).
In these examples, viscosity was measured using a Brookfield viscometer DV-II+ (Spindle No. 2, 12 rpm, 25° C.).

[2] = Water solubility evaluation; conditions: in water
[3] = Oil solubility evaluation in KAK99; conditions: in KAK99 (isononyl isononanoate)

**Q.** For `CCOCCOCCOC(=O)C(O)C(O)C(=O)OCCOCCOCC` (stereo not drawn) [Example 4, dicarbitol tartrate], which Viscosity [1] is on record?
**A.** 207 mPa · s

**Q.** For `CCOCCOCCOC(=O)CCCCC(=O)OCCOCCOCC` [Example 3, dicarbitol adipate], which Viscosity [1] is on record?
**A.** 20 mPa · s

**Q.** And the Feeling of use [1]?
**A.** light

**Q.** For “dicarbitol isononanoate [compound 1, reference compound]”, which Viscosity [1] is on record?
**A.** 5 mPa · s

**Q.** What about the Feeling of use [1] of the same compound?
**A.** light

**Q.** Which Water solubility [2] does the source give for `CCOCCOC(=O)CCC(=O)OCCOCC` [Example 6, di(monoethylene glycol monoethyl ether) succinate] here?
**A.** Δ (Dissolved in water up to 5% by mass)

**Q.** What about the Viscosity [1] of the same compound?
**A.** 10.0 mPa · s

**Q.** And the Feeling of use [1]?
**A.** light

**Q.** With `CCOCCOCCOCCOC(=O)CCC(=O)OCCOCCOCCOCC` [Example 5, di(triethylene glycol monoethyl ether) succinate] as the compound, how does the Oil solubility [3] read?
**A.** Δ (Dissolved in KAK99 up to 5% by mass)

**Q.** What about the Viscosity [1] of the same compound?
**A.** 32.5 mPa · s

**Q.** With `CCOCCOCCOC(=O)CCC(=O)OCCOCCOCC` [Example 1, dicarbitol succinate] as the compound, how does the Viscosity [1] read?
**A.** 12.5 mPa · s

**Q.** What about the Feeling of use [1] of the same compound?
**A.** light

**Q.** Which results are given for `CCOCCOCCOC(=O)CC(O)C(=O)OCCOCCOCC` (stereo not drawn) [Example 2, dicarbitol malate]?
**A.** Oil solubility [3]: Δ (Dissolved in KAK99 up to 5% by mass); Water solubility [2]: ◯ (Dissolved in water up to 10% by mass); Viscosity [1]: 45 mPa · s
